Measurements published in the NIST ThermoML archive (doi:10.1016/j.fluid.2015.05.002).

Conditions: Liquid; for mass density: 295 K, 101.33 kPa, Vibrating tube method; for vapor or sublimation pressure: Closed cell (Static) method

CC(C)CC(C)(C)C [2,2,4-trimethylpentane]
Conditions	mass density [kg/m3]	vapor or sublimation pressure [kPa]
–	690.4	–
388.02 K	–	163
392.98 K	–	184
398.09 K	–	208
403.09 K	–	233
408.08 K	–	262
413.12 K	–	293
418.11 K	–	326
423.15 K	–	362
428.13 K	–	401
433.09 K	–	442
438.15 K	–	488
443.1 K	–	536
448.13 K	–	589
453.09 K	–	644
458.11 K	–	704
463.05 K	–	769
468.08 K	–	837
473.08 K	–	911
483.1 K	–	1072
493.14 K	–	1255
503.18 K	–	1459
508.17 K	–	1571

Cc1ccco1 [2-methylfuran]
Conditions	mass density [kg/m3]	vapor or sublimation pressure [kPa]
–	916.7	–
353.1 K	–	167
358.07 K	–	194
363.06 K	–	224
368.02 K	–	257
372.97 K	–	294
377.98 K	–	334
382.99 K	–	379
387.96 K	–	427
392.97 K	–	480
397.93 K	–	538
402.98 K	–	600
407.95 K	–	670
412.96 K	–	743
417.96 K	–	823
422.94 K	–	909
427.97 K	–	1001
432.93 K	–	1099
437.97 K	–	1206
442.93 K	–	1319
447.95 K	–	1442
452.97 K	–	1571
457.97 K	–	1710
462.96 K	–	1856
467.96 K	–	2013
472.97 K	–	2179
482.96 K	–	2541
492.93 K	–	2947
502.93 K	–	3403
507.92 K	–	3651

CC1CCCO1 (stereo not given) [2-methyltetrahydrofuran]
Conditions	mass density [kg/m3]	vapor or sublimation pressure [kPa]
–	851.6	–
368.95 K	–	163
372.89 K	–	181
377.88 K	–	207
382.89 K	–	237
387.86 K	–	268
392.93 K	–	304
398.03 K	–	344
403.02 K	–	386
408.05 K	–	432
413.07 K	–	483
418.08 K	–	538
423.11 K	–	597
428.18 K	–	661
433.16 K	–	730
438.19 K	–	804
443.19 K	–	883
448.17 K	–	968
453.22 K	–	1060
458.19 K	–	1157
463.25 K	–	1262
468.25 K	–	1372
473.2 K	–	1489
483.25 K	–	1746
493.28 K	–	2035
503.24 K	–	2358
508.21 K	–	2532
